Data: US20110129463A1, “Quinazolin-4(3A)-One Derivatives and Methods of Use Thereof” (Proteologics, Ltd., priority 2009, published 2011)

What was measured:
A375 cells = assay: Viability of A375 cancer cells (WST-1 reagent); assay type: cell-based; settings: viability 72 hours post treatment
Protocol: A375 cells (CRL-1619, Melanoma cancer cells, American Type Culture Collection (“ATCC”), Manassas Va., USA) were cultured with RPMI and 10% FBS (300 cells per well). Twenty-four hours after seeding the cells were treated with different concentrations of Compound A. Viability of the cells was tested seventy-two hours post treatment using WST-1 reagent (Roche). The LD50s were calculated using Prism software (Graphpad). Compound A killed the A375 cancer cells with LD50 of 20 μM (FIG. 2A).

A375 melanoma cell line = assay: TRANSWELL cell migration of A375 melanoma cells; assay type: cell-based; settings: Homo sapiens, A-375, 24 hours, read-out: IC50 of inhibitory effect on cell-migration
Protocol: The A375 cells were cultured with RPMI and 10% FBS. The cells were starved for 24 hours in medium without FBS. At the end of the starvation, 5×10^4 cells in medium without FBS were placed in the upper chamber of 24-well, TRANSWELL apparatus (Corning TRANSWELL® polycarbonate membrane inserts, 5 μm pore size with solvent (DMSO/PEG400) or different concentrations of Compound A, B, C or D. Medium with FBS and compound A, B, C or D was added to the bottom chamber. Twenty-four hours later the cells from the upper chamber were removed with a cotton swab. Cells that migrated to the lower side of the membrane were stained with Calcein-AM (Sigma) and images were taken with a fluorescence microscope. The number of migrating cells was quantified by Image J software and the IC50 values were calculated using Prism software (Graphpad).

[1] = tested on: D122 Lewis lung cancer cells; assay: Formation of lung cancer metastasis, D122 cells injected into tail vein; assay type: in vivo, C57BL mice; settings: 20 mg/kg intraperitoneal twice daily for 28 days
Protocol: Suppressive activity against formation of lung cancer metastasis was tested using D122 Lewis lung cancer cells injected into the tail vein of male C57BL mice. Animals were treated twice daily by intraperitoneal injection of Compound A at 20 mg/kg or solvent (5% DMSO, 10% PEG400, 5% Solutol HS15, 5% Tween 80). Treatment was continued for 28 days. On day 33, animals were sacrificed, lungs were removed and weighed. When the Compound A and vehicle groups are compared, there is about a 50% decrease in added lung weight in the Compound A group (FIG. 3). The average weight gain in the control group was 250 mg while in the Compound A group it was only 125 mg. Analyzing the data using two tailed T test indicate a the data is significant (pValue=0.0085). The effect seen following administration of Compound A, supports the claim that this compound has anti-metastatic activity.

oxazolone-induced DTH = assay: Oxazolone-induced delayed-type hypersensitivity (DTH), ear swelling; assay type: in vivo, BALB/c mice; settings: oral, 1 hour before oxazolone challenge; compared with the control
Description: A delayed-type hypersensitivity (DTH) reaction is an expression of cell-mediated immunity and plays a major role in the pathology and chronicity of many inflammatory disorders. Delayed-type hypersensitivity (DTH) reactions can be induced by various allergens, including oxazolone, 2,4-dinitrofluorobenzene (DNFB) and sheep red blood cells (SRBCs). One of the most characteristic DTH phenomena is contact hypersensitivity, which is characterized by swelling and by increased tissue levels of cytokines. Contact hypersensitivity (CHS) is a T cell-mediated immune reaction in response to cutaneous sensitization and challenge with reactive haptens that are capable of binding directly to soluble and cell-associated proteins and recognized by T cells in the context of self-MHC products. The cells that recognize antigen-protein complex in the skin are the Langerhans cells (LCs). After topically allergen application, Langerhans cells (LCs), the major antigen-presenting cells (APCs) for the induction of immune responses in skin, show enhanced expression of surface MHC class II molecules, and start to emigrate from the skin to regional lymph nodes where specific lymphocyte activation is thought to occur. After a second contact with the hapten, T cells are first recruited into tissues and then activated by antigen-presenting cells to produce cytokines that mediate local inflammation. Myeloperoxidase (MPO) is an enzyme exclusively present in neutrophil granules, which is commonly used as an index of granulocyte infiltration, and its inhibition is indicative of an anti-inflammatory action.
The goal of the present study is to examine the effects of Compounds A, B and C on oxazolone-induced DTH. […]
Ear swelling response was determined by ear thickness measured with a micrometer before and 24 hours after oxazolone challenge and reported as the mean change in ear thickness (ΔT±S.E.M.). Percent suppression of ear swelling response was calculated as % suppression=[1−(ΔT of sensitized mice exposed to experimental treatment/ΔT of sensitized mice exposed to vehicle treatment)]×100. […]

EAE = EAE model for multiple sclerosis, clinical score; assay type: in vivo, CSJL/F1 mice
Protocol: The EAE model in CSJL/F1 mice is an established model for multiple sclerosis. Disease is induced in all mice by the injection of the encephalitogenic emulsion (MSCH/CFA, 0.05 ml injected into the left foot-pad of each mouse). Treatment with Compound A at 10 and 20 mg/kg or solvent (5% DMSO, 10% PEG400, 5% Solutol HS15, 5% Tween 80) by intraperitoneal injection, was started from day 1 of the study and administered twice daily in the first 9 days and then once daily until the end of the study. Scoring of EAE clinical signs were initiated from the 10th day post-EAE induction and continued daily. The clinical signs were recorded according to a grading system described in the table 1.

Compound	LD50 (killing of A375 cancer cells) (A375 cells)	IC50 (A375 melanoma cell line)	average weight gain (added lung weight) ([1]; day 33, control group 250 mg)	decrease in added lung weight vs vehicle group ([1]; lungs weighed on day 33)	anti-inflammatory activity in DTH study (FIG. 7) (oxazolone-induced DTH)	effect on EAE clinical signs (EAE; 10 mg/kg intraperitoneal)	EAE clinical signs relative to the score for water and vehicle controls (EAE; 20 mg/kg intraperitoneal)
O=c1c2ccccc2nc(/C=C/c2ccc(O)cc2)n1-c1cccc([N+](=O)[O-])c1 [Compound A, 2-[2-(4-Hydroxyphenyl)-vinyl]-3-(3-nitrophenyl)-4-quinazolone]	20 µM	100 nM	125 mg	~50%	same anti-inflammatory activity as the control	No effect	about half
COc1ccc(/C=C/c2nc3ccccc3c(=O)n2-c2cccc([N+](=O)[O-])c2)cc1 [Compound B, (E)-2-(4-methoxystyryl)-3-(3-nitrophenyl)quinazolin-4(3H)-one]		45 nM			same anti-inflammatory activity as the control		
O=c1c2ccccc2nc(/C=C/c2ccc(Br)cc2)n1-c1cccc([N+](=O)[O-])c1 [Compound C, (E)-2-(4-bromostyryl)-3-(3-nitrophenyl)quinazolin-4(3H)-one]		920 nM			same anti-inflammatory activity as the control		
Cn1ccc(/C=C/c2nc3ccccc3c(=O)n2-c2cccc(N(O)O)c2)n1 [Compound D, (E)-3-(3-(dihydroxyamino)phenyl)-2-(2-(1-methyl-1H-pyrazol-3-yl)vinyl)quinazolin-4(3H)-one]		61 nM					
